Reference: patent publication US20240058243A1, “A METHOD FOR FIGHTING MICROORGANISMS USING MENTHOL DERIVATIVES” (priority 2020, published 2024)
Values after ≈ are worked out from the molar mass of the structure shown. Like-named read-outs stand apart in the source and are kept apart here.

Experiments:
[1] = system: Anaerococcus octavius; assay: Minimum inhibitory concentration, pure culture; type: cell-based
Description: (§1) Antimicrobial activity was also investigated with pure cultures for three different cooling compounds. The results of Triclosan, a well-known antimicrobial, are shown for comparison. (Table 7):
It should be emphasized that Anaerococcus octavius represents the category of anaerobic odour causing bacteria. As a matter of fact, it is very hard to find antimicrobial materials which are active against these germs.

[2] = system: Escherichia coli; assay: Minimum inhibitory concentration, pure culture; type: cell-based; settings: for MIC: Escherichia coli, read-out: MIC Escherichia coli; for MIC Escherichia coli: Example 2 table (oral care)
Description: as §1
(§2) The differential inhibition of microorganisms was also investigated with strains that typically are found in the oral cavity and that are related to oral diseases like gingivitis or caries. The cooling compounds show a better efficacy against Streptococcus mutans, Streptococcus salivarius, Porphyromonas gingivalis and Fusobacterium nucleatum in comparison to Escherichia coli.

[3] = system: Staphylococcus hominis; assay: Minimum inhibitory concentration, pure culture; type: cell-based
Description: (§3) Antimicrobial activity was also investigated with pure cultures for three different cooling compounds. The results of Triclosan, a well-known antimicrobial, are shown for comparison.

[4] = system: Staphylococcus aureus; assay: Minimum inhibitory concentration, pure culture; type: cell-based
Description: as §3

[5] = system: Corynebacterium xerosis; assay: Minimum inhibitory concentration, pure culture; type: cell-based
Description: as §3

[6] = system: Staphylococcus epidermidis; assay: Minimum inhibitory concentration, pure culture; type: cell-based
Description: as §3

[7] = system: Candida albicans; assay: Minimum inhibitory concentration, pure culture; type: cell-based
Description: as §3

[8] = system: Fusobacterium nucleatum; assay: Minimum inhibitory concentration, oral cavity strains; type: cell-based; settings: read-out: MIC Fusobacterium nucleatum
Description: as §2

[9] = system: Streptococcus mutans; assay: as above; type: cell-based; settings: read-out: MIC Streptococcus mutans
Description: as §2

[10] = system: Streptococcus salivarius; assay: as above; type: cell-based; settings: Example 2 table (oral care)
Description: as §2

[11] = system: Porphyromonas gingivalis; assay: as above; type: cell-based; settings: read-out: MIC Porphyromonas gingivalis
Description: as §2

[12] = system: sweat odour of human axillary sweat; assay: Axillary microbiome ex vivo model: sweat odour rating by sensory panel
Description: (§4) The formation of sweat odour was investigated in an axillary microbiome ex vivo model that is based on human axillary sweat. […] This includes accumulation of volatile organic acids related to sweat odour (measured with GC-MS) and conversion of non-odorous precursor molecules to the respective odorous product (measured with HPLC) going along with the development of the typical sweat odour (assessed by a sensory panel).

[13] = system: axillary microbiome in human axillary sweat; assay: Axillary microbiome ex vivo model: microbiome composition; type: cell-based
Description: as §4
(§5) The resulting sweat odour is the result of microbial activity. Those microorganisms that can metabolize the nutrients contained in the sweat can also increase their cell number. Untreated sweat starts with a cell number of about 10^7 cells/ml. These numbers increase by a magnitude during incubation, both for aerobic as well as anaerobic cell count. […] Anaerobic genera like Anaerococcus, Peptoniphilus, and Finegoldia are part of the natural axillary flora (Zeeuwen et al (2012), Troccaz et al (2015)). As some of their assigned species are known to be odour causing (Fuji 2014), the limitation of their increase is of high importance for the management of the typical sweat odor. […] Table 2 refers to change in microbiome composition.

[14] = system: volatile organic acids in human axillary sweat; assay: Axillary microbiome ex vivo model: volatile organic acids (GC-MS); type: cell-based
Description: as §4

[15] = system: axillary microbiome in human axillary sweat; assay: Axillary microbiome ex vivo model: aerobic and anaerobic cell counts; type: cell-based
Description: as §4, §5

[16] = system: conversion of non-odorous precursor molecules in human axillary sweat; assay: Axillary microbiome ex vivo model: HPLC-MS of non-odourous precursors and odorous products; type: cell-based
Description: as §4

[17] = Table 7, read-out: MIC Anaerococcus octavius
[18] = Table 7, read-out: MIC Staphylococcus hominis
[19] = Table 7, read-out: MIC Staphylococcus aureus
[20] = Table 7, read-out: MIC Corynebacterium xerosis
[21] = Table 7, read-out: MIC Staphylococcus epidermidis
[22] = Table 7, read-out: MIC Candida albicans
[23] = 5,000 ppm, after 48 h incubation of fresh sweat

## CC(C)[C@@H]1CC[C@@H](C)CC12OCC(CO)O2 (mixture of isomers) [Frescolat ® MGA, Menthon Glyceryl Acetal]
[1]; [17]
  MIC: 2.5 µg/mL
[2]; Table 7
  MIC: > 1 µg/mL
[2]
  MIC Escherichia coli: >1.000 ppm
[3]; [18]
  MIC: 500 µg/mL
[4]; [19]
  MIC: 1 µg/mL
[5]; [20]
  MIC: 500 µg/mL
[6]; [21]
  MIC: 500 µg/mL
[7]; [22]
  MIC: > 1 µg/mL
[8]; Example 2 table (oral care)
  MIC: 500 µg/mL
[9]; Example 2 table (oral care)
  MIC: 500 µg/mL
[10]
  MIC: 500 µg/mL
[11]; Example 2 table (oral care)
  MIC: 250 µg/mL

## CC(O)C(=O)O[C@@H]1C[C@H](C)CC[C@H]1C(C)C (stereo in doubt) [Frescolat ® ML, Menthyl Lactate]
[1]; [17]
  MIC: 500 µg/mL
[12]; 5000 ppm added to fresh sweat
  Odour development in sensory analysis in comparison to untreated: clear reduction of odour development
[12]; 5000 ppm, 48 h, mean of 8 panelists
  Odor rating (smell intensity), mean: 2.4
[2]; Table 7
  MIC: > 5 µg/mL
[2]
  MIC Escherichia coli: >5.000 ppm
[3]; [18]
  MIC: 250 µg/mL
[4]; [19]
  MIC: 250 µg/mL
[5]; [20]
  MIC: 250 µg/mL
[6]; [21]
  MIC: 500 µg/mL
[7]; [22]
  MIC: 1 µg/mL
[13]; 5000 ppm added to fresh sweat
  Abundance of anaerobic odour causing genera Anaerococcus, Finegoldia and Moraxella: inhibited in their abundance increase
  Relative abundance of Raoultella, Corynebacterium and Staphylococcus versus untreated: same relative abundance as in the untreated sample
[13]; 5,000 ppm, after 48 h
  Relative abundance Anaerococcus: 1.6%
  Relative abundance Below 0.1%: 1.1%
  Relative abundance Citrobacter: 11.7%
  Relative abundance Corynebacterium: 2.8%
  Relative abundance Enterobacter: 32.6%
  Relative abundance Finegoldia: 0.2%
  Relative abundance Kluyvera: 0.9%
  Relative abundance Moraxella: 0.0%
  Relative abundance Propionibacterium: 7.6%
  Relative abundance Raoultella: 39.1%
  Relative abundance Staphylococcus: 2.2%
  Relative abundance Streptococcus: 0.1%
  Relative abundance Undefined: 0.0%
[14]; 5000 ppm added to fresh sweat
  Formation of volatile organic acids: drastically reduced formation
[14]; 5000 ppm, 48 h
  Concentration of 2-Methylbutyric Acid: 0 ppm
  Concentration of Acetic Acid: 11.1 ppm
  Concentration of Butyric Acid: 0.3 ppm
  Concentration of Capric Acid: 1.3 ppm
  Concentration of Capronic Acid: 0.6 ppm
  Concentration of Caprylic Acid: 1.5 ppm
  Concentration of Lauric Acid: 1.7 ppm
  Concentration of Propanoic Acid: 2.2 ppm
  Concentration of Valeric Acid: 0 ppm
[15]; 5000 ppm added to fresh sweat
  Cell number development compared to untreated: slight reduction compared to untreated
[15]; [23]
  Aerobic cell count: 6.85E+07 cells/ml
  Anaerobic cell count: 1.08E+07 cells/ml
[8]; Example 2 table (oral care)
  MIC: 250 µg/mL
[9]; Example 2 table (oral care)
  MIC: 125 µg/mL
[10]
  MIC: 500 µg/mL
[11]; Example 2 table (oral care)
  MIC: 125 µg/mL
[16]; 5000 ppm added to fresh sweat
  Formation of odorous products: drastically reduced formation
[16]; 5000 ppm, 48 h
  Concentration of non-odourous pre-cursour N-α-3-hydroxy-3-methylhexanoyl-L-glutamine (HMHA-Gln): 102.24 ppm
  Concentration of non-odourous pre-cursour N-α-[(2E)-3-methyl-2-hexenoyl]-L-glutamine (3M2H-Gln): 10.42 ppm
  Concentration of odorous products, line N-α-3-hydroxy-3-methylhexanoyl-L-glutamine (HMHA-Gln): 0.43 ppm
  Concentration of odorous products, line N-α-[(2E)-3-methyl-2-hexenoyl]-L-glutamine (3M2H-Gln): 1.69 ppm

## CC(C)[C@@H]1CC[C@@H](C)C[C@H]1OC(=O)OCCO [Frescolat ® MGC, Menthol Ethylene Glycol Carbonate]
[1]; [17]
  MIC: 1 µg/mL (≈ 4.09 µM)
[2]; Table 7
  MIC: > 1 µg/mL
[2]
  MIC Escherichia coli: >1.000 ppm
[3]; [18]
  MIC: 500 µg/mL (≈ 2050 µM)
[4]; [19]
  MIC: 500 µg/mL (≈ 2050 µM)
[5]; [20]
  MIC: 500 µg/mL (≈ 2050 µM)
[7]; [22]
  MIC: > 1 µg/mL
[8]; Example 2 table (oral care)
  MIC: 16 µg/mL (≈ 65.5 µM)
[9]; Example 2 table (oral care)
  MIC: 250 µg/mL (≈ 1020 µM)
[10]
  MIC: 500 µg/mL (≈ 2050 µM)
[11]; Example 2 table (oral care)
  MIC: 125 µg/mL (≈ 512 µM)

## Oc1cc(Cl)ccc1Oc1ccc(Cl)cc1Cl [Triclosan, reference compound]
[1]; read-out: MIC Anaerococcus octavius
  MIC: > 500 µg/mL
[2]
  MIC: > 1 µg/mL
  MIC Escherichia coli: >1 ppm
[3]; read-out: MIC Staphylococcus hominis
  MIC: 4 µg/mL (≈ 13.8 µM)
[4]; read-out: MIC Staphylococcus aureus
  MIC: 2 µg/mL (≈ 6.91 µM)
[5]; read-out: MIC Corynebacterium xerosis
  MIC: 8 µg/mL (≈ 27.6 µM)
[6]; read-out: MIC Staphylococcus epidermidis
  MIC: 4 µg/mL (≈ 13.8 µM)
[7]; read-out: MIC Candida albicans
  MIC: 16 µg/mL (≈ 55.3 µM)
[8]
  MIC: 8 µg/mL (≈ 27.6 µM)
[9]
  MIC: 8 µg/mL (≈ 27.6 µM)
[11]
  MIC: 1 µg/mL (≈ 3.45 µM)
